For test [1], the target named is T1, human A1-adenosine receptor (Homo sapiens, UniProt P30542).
T1 construct: expressed in transfected cells; host or cells: CHO cells
T1 sequence (P30542 1-326): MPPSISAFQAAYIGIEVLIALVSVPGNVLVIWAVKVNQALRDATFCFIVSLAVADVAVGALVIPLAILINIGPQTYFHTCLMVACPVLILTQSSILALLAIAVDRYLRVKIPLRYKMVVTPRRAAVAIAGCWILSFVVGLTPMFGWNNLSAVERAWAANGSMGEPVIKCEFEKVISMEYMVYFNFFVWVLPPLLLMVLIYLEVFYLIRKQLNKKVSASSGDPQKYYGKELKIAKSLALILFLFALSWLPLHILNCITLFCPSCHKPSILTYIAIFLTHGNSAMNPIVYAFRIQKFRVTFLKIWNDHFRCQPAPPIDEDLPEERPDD
Kind of test: Radioligand binding with [3H]CCPA on recombinant human A1-adenosine receptors expressed by CHO cells. The following applies: read-out: A1 K1, Human. The source says: The following selective radioligands are used in the biological tests: • [^3H]CCPA (for A1 ARs) [Klotz et al., Naunyn-Schmiedeberg's Arch. Pharmacol., 340, 679 (1989)] • [^3]MSX-2 (for A2A ARs) [Muiller et al., Eur. J. Pharm. Sci., 10, 259 (2000)] • [^3H]ZM241385 (for A2B ARs_[X.-D. Ji, K. A. Jacobson, Drug Des. Discov., 16, 217 (1999)] • [^3H]PSB-11 (new antagonistic radioligand for human A3 ARs) [M. Dieckmann, M. Thorand, V. Ozola, C. E. Muiller, in Vorbereitung [Preparation] (2001)]. • [^125I]AB-MECA (for rat-A3 ARs) [Olah et al., Mol. Pharmacol., 45, 978 (1994)]. Description of the Assays That are Used for Testing Substances Production of Tissue Preparations Made from Rat Brains
As cell cultures, for example, CHO cells, which express the human A1-adenosine receptor, are used.
The nutrient medium, trypsine and PBS (phosphate-buffered common salt solution) are heated in a water bath to 37° C. The medium is suctioned off from the flask that is approximately 80% to 90% confluently covered with CHO cells. […]
The mixture is incubated for 90 minutes in an oscillating water bath at 23° C. […] The filter plates are conveyed in scintillation vials, doused with 2.5 ml of Ultima Gold Scintillation cocktail and incubated for at least 6 hours before they are measured in a scintillation counter.
The mean value is calculated from three independent experiments. […]

In another test the target is T2, A1 adenosine receptor (Rattus norvegicus, UniProt P25099).
T2 sequence (P25099 1-326): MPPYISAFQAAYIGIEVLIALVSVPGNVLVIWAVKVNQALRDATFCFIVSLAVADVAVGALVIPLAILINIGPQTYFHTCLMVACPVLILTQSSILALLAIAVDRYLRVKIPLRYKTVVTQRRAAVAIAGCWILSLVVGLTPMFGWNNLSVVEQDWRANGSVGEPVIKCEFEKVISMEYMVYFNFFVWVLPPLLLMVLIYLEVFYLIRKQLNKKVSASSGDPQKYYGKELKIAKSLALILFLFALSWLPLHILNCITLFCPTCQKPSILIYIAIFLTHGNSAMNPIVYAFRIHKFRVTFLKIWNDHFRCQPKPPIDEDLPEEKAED
The settings on record: Table 1, literature values, cited from earlier work.

Where only a bound is given, the exact number is not on record here.

Take “4-(chloropyrazolyl)-1-(3-phenylpropyl)-[1,2,4-]triazolo[4,3-a]quinoxaline [Y = C—CH2—CH2—CH2-Ph, R5 = H, R6 = Cl]”: the Ki in test [1] came to 2 nM. With `Clc1cc(-c2nc3ccccc3n3cnnc23)[nH]n1` [Y = C—H, R5 = H, R6 = Cl], the “A1 % Inhibition @ 10 μmol” value on A1 adenosine receptor (10 μmol) was “(35%)”. Moreover, at A1 adenosine receptor (read-out: A1 K1), the Ki was > 10000 nM.

The values are drawn from US20050107611A1, “Pyrazolyl-substituted triazoloquinoxalines” (priority 2001, published 2005).
